Activity calls are given as the source filed them. The calls are words filed in the database; no cut-off is given here.
Assays:
Canavalia ensiformis = assay: Inhibition of jack bean alpha-mannosidase assessed as p-nitrophenylglycoside substrate hydrolysis at 1 mM
[1] = biological target: T1, Endoplasmic reticulum mannosyl-oligosaccharide 1,2-alpha-mannosidase (Homo sapiens, UniProt Q9UKM7); assay: Inhibition of human ER alpha mannosidase 1
T1 sequence (Q9UKM7 whole entry): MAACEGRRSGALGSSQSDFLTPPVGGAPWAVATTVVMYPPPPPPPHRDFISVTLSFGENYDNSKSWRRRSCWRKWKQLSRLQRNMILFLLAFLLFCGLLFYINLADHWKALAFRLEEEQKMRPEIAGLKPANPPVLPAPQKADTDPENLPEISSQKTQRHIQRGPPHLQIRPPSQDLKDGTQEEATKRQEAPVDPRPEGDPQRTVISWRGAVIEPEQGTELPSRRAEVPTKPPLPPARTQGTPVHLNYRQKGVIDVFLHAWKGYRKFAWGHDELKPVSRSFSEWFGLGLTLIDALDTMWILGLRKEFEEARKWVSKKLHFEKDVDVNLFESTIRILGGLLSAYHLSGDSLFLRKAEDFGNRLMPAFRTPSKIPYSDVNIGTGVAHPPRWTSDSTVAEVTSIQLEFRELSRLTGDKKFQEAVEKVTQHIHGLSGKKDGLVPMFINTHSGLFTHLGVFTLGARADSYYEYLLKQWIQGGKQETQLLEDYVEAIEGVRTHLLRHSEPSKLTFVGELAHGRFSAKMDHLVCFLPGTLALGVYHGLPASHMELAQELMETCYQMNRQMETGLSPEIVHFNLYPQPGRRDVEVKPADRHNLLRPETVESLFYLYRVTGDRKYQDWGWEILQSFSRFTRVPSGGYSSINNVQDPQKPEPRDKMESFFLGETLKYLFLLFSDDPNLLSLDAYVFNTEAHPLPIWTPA

Alpha-mannosidase 2 = biological target: T2, Alpha-mannosidase 2 (Homo sapiens, UniProt Q16706); assay: Inhibition of human golgi alpha mannosidase 2
T2 sequence (Q16706 whole entry): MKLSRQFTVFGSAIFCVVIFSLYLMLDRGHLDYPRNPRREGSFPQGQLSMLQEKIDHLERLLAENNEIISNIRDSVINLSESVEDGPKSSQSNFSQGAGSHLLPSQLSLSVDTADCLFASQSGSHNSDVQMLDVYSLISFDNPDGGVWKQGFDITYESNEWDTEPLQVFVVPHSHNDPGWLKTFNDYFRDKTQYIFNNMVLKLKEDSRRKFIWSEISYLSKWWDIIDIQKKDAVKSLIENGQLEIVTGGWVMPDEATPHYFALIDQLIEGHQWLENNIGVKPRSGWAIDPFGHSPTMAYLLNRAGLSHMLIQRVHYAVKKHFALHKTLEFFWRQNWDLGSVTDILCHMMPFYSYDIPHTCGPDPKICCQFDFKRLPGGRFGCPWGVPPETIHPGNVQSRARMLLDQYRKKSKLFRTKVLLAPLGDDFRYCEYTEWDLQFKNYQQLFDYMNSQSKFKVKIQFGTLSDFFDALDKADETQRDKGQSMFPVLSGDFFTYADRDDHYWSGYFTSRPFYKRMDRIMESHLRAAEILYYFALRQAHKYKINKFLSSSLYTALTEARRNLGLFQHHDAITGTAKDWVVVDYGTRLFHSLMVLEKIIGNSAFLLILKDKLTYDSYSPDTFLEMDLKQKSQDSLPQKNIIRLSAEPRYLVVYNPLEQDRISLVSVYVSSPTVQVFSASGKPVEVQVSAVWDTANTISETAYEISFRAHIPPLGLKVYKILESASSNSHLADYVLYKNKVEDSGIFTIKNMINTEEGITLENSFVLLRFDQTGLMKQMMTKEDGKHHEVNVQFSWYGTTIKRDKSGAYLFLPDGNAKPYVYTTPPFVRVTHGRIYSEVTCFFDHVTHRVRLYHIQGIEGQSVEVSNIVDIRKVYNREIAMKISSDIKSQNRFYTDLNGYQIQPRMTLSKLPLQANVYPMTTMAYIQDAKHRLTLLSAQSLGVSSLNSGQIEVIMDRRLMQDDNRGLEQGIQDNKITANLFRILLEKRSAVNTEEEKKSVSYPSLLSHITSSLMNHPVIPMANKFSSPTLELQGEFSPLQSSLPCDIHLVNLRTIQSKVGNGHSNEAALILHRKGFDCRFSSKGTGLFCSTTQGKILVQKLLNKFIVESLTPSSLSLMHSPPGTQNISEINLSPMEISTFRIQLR

Prunus dulcis = assay: Inhibition of almond alpha-mannosidase assessed as p-nitrophenylglycoside substrate hydrolysis at 1 mM

Structure (SMILES)	inhibition (Canavalia ensiformis)	Ki [1]	Ki (Alpha-mannosidase 2)	inhibition (Prunus dulcis)
OC(O)C[C@H]1NC[C@H](O)[C@@H]1O	81%	287 µM	438 µM	–
O[C@@H]1CNC[C@@H]1O	70%	3.24 µM	531 µM	40%
O[C@H]1[C@@H](O)CN[C@@H]1CNCc1ccco1	49%	136 µM	292 µM	29%
C[C@@H](O)NC[C@H]1NC[C@H](O)[C@@H]1O	75%	918 µM	450 µM	39%
CC(NC[C@H]1NC[C@H](O)[C@@H]1O)C(O)(c1ccccc1)c1ccccc1 (stereo partly specified)	inactive	27.1 µM	80.8 µM	inactive
O[C@H]1[C@@H](O)CN[C@@H]1CNC1CCCC1	60%	66.9 µM	333 µM	53%
O[C@H]1[C@@H](O)CN[C@@H]1CCNc1ccccc1	33%	74.3 µM	123 µM	inactive
NC[C@H]1NC[C@H](O)[C@@H]1O	81%	1.59 µM	1310 µM	51%
O[C@H]1[C@@H](O)CN[C@@H]1CNCc1ccccc1	92%	35 µM	152 µM	–
O[C@H]1[C@@H](O)CN[C@@H]1CN[C@H](c1ccccc1)[C@@H](O)c1ccccc1	88%	0.79 µM	7.77 µM	55%
CC(=O)N(CNC[C@H]1NC[C@H](O)[C@@H]1O)Cc1ccccc1	inactive	44.8 µM	64.9 µM	inactive
OC[C@H](NC[C@H]1N[C@H](CO)[C@H](O)[C@@H]1O)c1ccccc1	98%	24.6 µM	11.8 µM	96%
O[C@H]1[C@@H](O)CN[C@@H]1CNCn1ccnc1	55%	326 µM	568 µM	59%
C[C@H](O)NC[C@H]1NC[C@H](O)[C@@H]1O	66%	488 µM	683 µM	45%
O[C@H]1[C@@H](O)CN[C@@H]1CNCc1cccs1	89%	77.7 µM	233 µM	68%
OC[C@H]1NC[C@H](O)[C@@H]1O [IMINORIBITOL]	54%	1.26 µM	1430 µM	37%
CC(NC[C@H]1NC[C@H](O)[C@@H]1O)c1ccccc1 (stereo partly specified)	66%	28.1 µM	82.3 µM	48%
O[C@H]1[C@@H](O)CN[C@@H]1CNCC1CCN(Cc2ccccc2)CC1	55%	13.1 µM	43.2 µM	59%
OCC(O)[C@H]1NC[C@H](O)[C@@H]1O (stereo partly specified)	inactive	169 µM	229 µM	inactive

Continued, values first:

inhibition (Canavalia ensiformis)	Ki [1]	Ki (Alpha-mannosidase 2)	inhibition (Prunus dulcis)	Structure (SMILES)
77%	12.1 µM	36 µM	63%	COC[C@H](NC[C@H]1NC[C@H](O)[C@@H]1O)c1ccccc1
79%	0.31 µM	12.8 µM	–	O[C@H]1[C@@H](O)CN[C@@H]1CN[C@@H](COCOc1cccc(Br)c1)c1ccccc1
83%	0.91 µM	11.3 µM	–	O[C@H]1[C@@H](O)CN[C@@H]1CN[C@@H](COCOc1ccccc1F)c1ccccc1
92%	12 µM	29.9 µM	55%	OC[C@@H](NC[C@H]1NC[C@H](O)[C@@H]1O)c1ccccc1
92%	0.31 µM	15.5 µM	–	O[C@H]1[C@@H](O)CN[C@@H]1CN[C@@H](COCOc1ccc(Br)cc1)c1ccccc1
99%	0.76 µM	9.14 µM	–	O[C@H]1[C@@H](O)CN[C@@H]1CN[C@@H](COCc1cccc(F)c1)c1ccccc1
89%	0.16 µM	4.35 µM	–	O=C(NC[C@H](NC[C@H]1NC[C@H](O)[C@@H]1O)c1ccccc1)c1ccccc1Br
92%	0.44 µM	6.47 µM	–	O[C@H]1[C@@H](O)CN[C@@H]1CN[C@@H](COCOc1ccc(F)cc1)c1ccccc1
–	16.8 µM	26.9 µM	93%	OC[C@H](NC[C@H]1NC[C@H](O)[C@@H]1O)c1ccccc1
92%	0.23 µM	68.3 µM	75%	O[C@H]1[C@@H](O)CN[C@@H]1CN[C@@H](COCc1ccccc1)c1ccccc1
84%	2.62 µM	25.9 µM	50%	O[C@H]1[C@@H](O)CN[C@@H]1CN[C@@H](c1ccccc1)[C@H](O)c1ccccc1

Source: ChEMBL document CHEMBL2203079, “Virtual screening and QSAR study of some pyrrolidine derivatives as α-mannosidase inhibitors for binding feature analysis” (Bioorg Med Chem, 2012)
